Data as given in patent publication US20140045689A1, “3,4-disubstituted pyrrole 2,5-diones and their use as fungicides” (priority 2011, published 2014).

Legend:
Pyrenophora teres = test: Activity against net blotch Pyrenophora teres in the microtiter test; type: cell-based; settings: relative growth vs active substance-free control (=100%), absorption 405 nm, day 7 after inoculation
Phakopsora pachyrhizi = test: Protective control of soy bean rust on soy beans caused by Phakopsora pachyrhizi (greenhouse); type: in vivo; settings: % diseased leaf area, soy bean seedlings sprayed 1 day before inoculation, untreated control 90
Description: (§1) The active substances were formulated separately or together as a stock solution comprising 25 mg of active substance which was made up to 10 ml using a mixture of acetone and/or dimethyl sulfoxide (DMSO) and the emulsifier Wettol EM 31 (wetting agent having emulsifying and dispersing action based on ethoxylated alkylphenols) in a volume ratio of solvent/emulsifier of 99 to 1. This solution was then made up to 100 ml using water. This stock solution was diluted with the solvent/emulsifier/water mixture described to the active substance concentration given below.
Leaves of pot-grown soy bean seedlings were sprayed to run-off with an aqueous suspension, containing the concentration of active ingredient or their mixture as described below. The plants were allowed to air-dry. The trial plants were cultivated for 1 day in a greenhouse chamber at 23-27° C. and a relative humidity between 60 and 80%. Then the plants were inoculated with spores of Phakopsora pachyrhizi. To ensure the success the artificial inoculation, the plants were transferred to a humid chamber with a relative humidity of about 95% and 20 to 24° C. for 24 h. The trial plants were cultivated for fourteen days in a greenhouse chamber at 23-27° C. and a relative humidity between 60 and 80%. The extent of fungal attack on the leaves was visually assessed as % diseased leaf area.

Septoria tritici = test: Preventative control of leaf blotch on wheat caused by Septoria tritici (Septtr P1, greenhouse); type: in vivo; settings: % diseased leaf area, wheat seedlings sprayed 1 day before inoculation, untreated control 80
Description: as §1
Leaves of pot-grown wheat seedling were sprayed to run-off with an aqueous suspension of the active compound or their mixture, prepared as described. The plants were allowed to air-dry. At the following day the plants were inoculated with an aqueous spore suspension of Septoria tritici. Then the trial plants were immediately transferred to a humid chamber at 18-22° C. and a relative humidity close to 100%. After 4 days the plants were transferred to a chamber with 18-22° C. and a relative humidity close to 70%. After 4 weeks the extent of fungal attack on the leaves was visually assessed as % diseased leaf area.

Plasmopara viticola = type: in vivo; settings: % diseased leaf area on lower leaf surface, grape cuttings sprayed 1 day before inoculation, untreated control 100
Pyricularia oryzae = type: cell-based; settings: relative growth vs active substance-free control (=100%), absorption 405 nm, day 7 after inoculation

CN(C)C1=C(C#N)C(=O)N(C)C1=O
melting point: 120 °C

CN1C(=O)C(Oc2ccccc2)=C(Oc2ccccc2)C1=O
Growth at 32 ppm (%) (Pyrenophora teres): 1%

CCN1C(=O)C(Cl)=C(Sc2ccccc2S)C1=O
Disease (%) at 1000 pm Phakpa P1 (Phakopsora pachyrhizi): 3%

CCN1C(=O)C(Cl)=C(Sc2ccccc2O)C1=O
Disease (%) at 1000 pm Septtr P1 (Septoria tritici): 1%

COC1=C(OC)C(=O)N(C)C1=O
Disease (%) at 1000 pm Plasvi P1 (Plasmopara viticola): 20%

CN1C(=O)C(N)=C(Cl)C1=O
Disease (%) at 1000 pm Plasvi P1 (Plasmopara viticola): 7%

CSC1=C(SC)C(=O)N(C)C1=O [drawing 56]
Growth at 32 ppm (%) (Pyrenophora teres): 0%

CCN1C(=O)C(Cl)=C(Nc2ccccc2O)C1=O [drawing 57]
Growth at 32 ppm (%) (Pyrenophora teres): 15%

CCN1C(=O)C=C(Nc2ccccc2O)C1=O [drawing 58]
Growth at 32 ppm (%) (Pyrenophora teres): 12%

CSC1=C(SC)C(=O)N(C)C1=O [drawing 59]
Growth at 32 ppm (%) (Pyricularia oryzae): 0%

CCN1C(=O)C(Cl)=C(Nc2ccccc2O)C1=O [drawing 60]
Growth at 32 ppm (%) (Pyricularia oryzae): 10%

CCN1C(=O)C=C(Nc2ccccc2O)C1=O [drawing 61]
Growth at 32 ppm (%) (Pyricularia oryzae): 11%
